Measurements reported in patent US4808616A, “6-substituted androsta-1,4-diene-3,17-diones” (Farmitalia Carlo Erba S.r.l., priority 1985, dated 1989).

Tests used:
rat ovarian aromatase = experiment: Inhibition of rat ovarian aromatase in vivo (PMSG-treated adult female rats, oral)
[1] = women; cited from earlier work
[2] = biological target: T1, human placental aromatase (Homo sapiens, UniProt P11511); experiment: Inhibition of human placental aromatase in vitro; assay type: biochemical
T1 construct: isolated from the microsomal fraction of human placental tissue; from tissue; host or cells: human placenta, microsomal fraction
T1 sequence (P11511 1-503): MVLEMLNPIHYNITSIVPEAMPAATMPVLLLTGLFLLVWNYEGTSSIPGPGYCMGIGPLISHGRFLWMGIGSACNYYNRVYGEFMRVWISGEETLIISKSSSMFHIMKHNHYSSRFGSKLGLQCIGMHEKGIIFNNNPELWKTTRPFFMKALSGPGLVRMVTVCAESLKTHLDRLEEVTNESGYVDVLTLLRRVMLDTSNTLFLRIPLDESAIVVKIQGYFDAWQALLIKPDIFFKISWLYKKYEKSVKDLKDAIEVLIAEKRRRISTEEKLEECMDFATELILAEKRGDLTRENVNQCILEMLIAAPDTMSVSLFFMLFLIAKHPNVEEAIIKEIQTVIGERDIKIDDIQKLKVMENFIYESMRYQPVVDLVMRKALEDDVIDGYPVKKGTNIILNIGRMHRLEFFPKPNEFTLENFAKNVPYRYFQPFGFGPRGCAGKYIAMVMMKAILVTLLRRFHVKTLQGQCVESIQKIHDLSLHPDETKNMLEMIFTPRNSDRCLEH

[3] = 30 mg/kg p.o., rats, ovaries taken 24 hrs later

Compound	% Aromatase inhibition at 30 mg/kg p.o. (result in words) (rat ovarian aromatase; [3])	effectiveness in vivo by oral route (in words) (rat ovarian aromatase; administered in vivo by oral route)	conjugation after oral administration [1]	% Aromatase inhibition at 30 mg/kg p.o. (rat ovarian aromatase; [3]) [%]	Relative potency [2]
C[C@]12CCC(=O)C(O)=C1CC[C@@H]1[C@@H]2CC[C@]2(C)C(=O)CC[C@@H]12 [4-hydroxy-androst-4-ene-3,17-dione]	inactive	ineffective	extensively conjugated after oral administration		
C=C1C[C@@H]2[C@H](CC[C@]3(C)C(=O)CC[C@@H]23)[C@@]2(C)CCC(=O)C=C12 [6-methylenandrost-4-ene-3,17-dione, reference compound]	inactive				
C[C@]12C=CC(=O)C=C1CC[C@@H]1[C@@H]2CC[C@]2(C)C(=O)CC[C@@H]12 [androsta-1,4-diene-3,17-dione]				37	
C[C@]12C=CC(=O)C=C1CC[C@@H]1[C@@H]2CC[C@]2(C)OC(=O)CC[C@@H]12 [Δ^1 -testololactone, reference compound]	inactive				0.005
